These results are taken from US10941150B2, “Salt type and crystal type of 4h-pyrazolo [1, 5-alpha] benzimidazole compound and preparation method and intermediate thereof” (HUBEI BIO-PHARMACEUTICAL INDUSTRIAL TECHNOLOGICAL INSTITUTE …, priority 2015, dated 2021).

Structures are written as SMILES. Read-outs that look alike come from different tables or passages of the source.

One data set concerns MDA-MB-231 cells. Description: Anti-proliferation test (CCK8), singly and combined with TMZ. Conditions: for IC50: 8 days; for PF50: PF50=[IC50 of the tested compound]/[IC50 at fixed TMZ concentration]. Format: cell-based. The method, then: (§1) MDA-MB-436 and MDA-MB-231 cells were seeded in a 96-well plate at a density of 500 and 2000 cell per well, respectively, and cultured overnight. The medium was RPMI 1640 containing 10% (v/v) FBS and 1% (v/v) penicillin-streptomycin. They were treated for 8 days after the compound to be tested was added. Cell viability was measured by CCK8 kit. Specifically, 10 µL CCK8 reagent was added to each well and incubated in a 5% CO2 incubator at 37° C. for 3 hours. After shaking for 10 minutes, the light absorbance (OD value) was measured with a Flexstation III (Molecular Device) at 450 nm.
(§2) For the test of compound combinations (in combination with DNA damage drugs), the PF50 value was used to calculate the synergistic effect of the drug. PF50=[IC50 of the tested compound]/[IC50 of the compound at a fixed DNA damage drug concentration]. Temozolomide (TMZ) was used as DNA damage drug in this study.

The subject of a further data set is MDA-MB-436 cells. The data set is described as above. The format is cell-based. The note with it: for IC50: 8 days; for PF50: PF50=[IC50 of the tested compound]/[IC50 at fixed TMZ concentration]. The method, then:
as §1, §2

A short description of data set [1]: Stability test for Crystal type A in different solvents. The note with it: for Results (crystalline state by XRPD): 3 days. Format: physicochemical. The text has this:
After being stirred for 3 days, the samples were centrifuged and the solid in all samples were collected. XRPD was used to determine the crystalline state.

Data set [2] in a line: Solid stability test for Crystal type A under high temperature, high humidity and strong illumination. The format is physicochemical. Here is the method:
The sample placed at 60° C. and 92.5% relative humidity was sealed with aluminum foil at the vial mouth, and the aluminum foil was pricked to ensure that the sample was fully exposed to the ambient air; the sample placed under strong illumination (5Klux) was sealed with a screw cap. The samples placed under different conditions were sampled and tested on the 10th day. The test results were compared with the initial test results on the 0th day.

Where [3] appears, read: Homo sapiens, MDA-MB-231, 192 h, MDA-MB-231, combined with 1uM TMZ, average, read-out: IC50_Avg.
The mark [4] stands for this setting: Homo sapiens, MDA-MB-231, 192 h, MDA-MB-231, combined with 1uM TMZ, run N=1, read-out: IC50_N = 1.
[5] abbreviates: Homo sapiens, MDA-MB-231, 192 h, MDA-MB-231, combined with 1uM TMZ, run N=2, read-out: IC50_N = 2.
Where [6] appears, read: Homo sapiens, MDA-MB-231, 192 h, MDA-MB-231, used singly, average, read-out: IC50_Avg.
The mark [7] stands for this setting: Homo sapiens, MDA-MB-231, 192 h, MDA-MB-231, used singly, run N=1, read-out: IC50_N = 1.
The mark [8] stands for this setting: Homo sapiens, MDA-MB-231, 192 h, MDA-MB-231, used singly, run N=2, read-out: IC50_N = 2.
Where [9] appears, read: MDA-MB-231, combined with 1uM TMZ.
The mark [10] stands for this setting: Homo sapiens, MDA-MB-436, 192 h, MDA-MB-436, combined with 25uM TMZ, average, read-out: IC50_Avg.
Where [11] appears, read: Homo sapiens, MDA-MB-436, 192 h, MDA-MB-436, combined with 25uM TMZ, run N=1, read-out: IC50_N = 1.
[12] abbreviates: Homo sapiens, MDA-MB-436, 192 h, MDA-MB-436, combined with 25uM TMZ, run N=2, read-out: IC50_N= 2.
Setting [13] is: Homo sapiens, MDA-MB-436, 192 h, MDA-MB-436, used singly, average, read-out: IC50_Avg.
Setting [14] is: Homo sapiens, MDA-MB-436, 192 h, MDA-MB-436, used singly, run N=1, read-out: IC50_N = 1.
Setting [15] is: Homo sapiens, MDA-MB-436, 192 h, MDA-MB-436, used singly, run N=2, read-out: IC50_N= 2.
The mark [16] stands for this setting: MDA-MB-436, combined with 25uM TMZ.
[17] abbreviates: Strong illumination (sealed), 5Klux, day 10.

In the case of `C[C@]1(c2nc3c(C(N)=O)cccc3[nH]2)CCCN1` [ABT-888, Veliparib], the IC50 worked out at 30.7 µM in the data set with MDA-MB-231 cells (setting [3]); 25.5 µM in the data set with MDA-MB-231 cells (setting [4]); 36 µM with MDA-MB-231 cells (setting [5]); 40.5 µM in the data set on MDA-MB-231 cells (setting [6]); 44 µM with MDA-MB-231 cells (setting [7]); 37 µM with MDA-MB-231 cells (setting [8]). In addition, the IC50 with MDA-MB-436 cells (setting [10]) was determined as 0.018 µM; in the data set on MDA-MB-436 cells (setting [11]) it was 0.026 µM; with MDA-MB-436 cells (setting [12]), 0.01 µM; with MDA-MB-436 cells (setting [13]) it was 0.305 µM; in the data set on MDA-MB-436 cells (setting [14]), 0.444 µM; in the data set on MDA-MB-436 cells (setting [15]), 0.167 µM. In addition, the PF50 in the data set on MDA-MB-231 cells (setting [9]) was 1.32; in the data set on MDA-MB-436 cells (setting [16]), 17.14.
In the case of `CC(C)N1CCC(C)(c2cnn3c2[nH]c2cc(F)cc(C(N)=O)c23)CC1` [Compound 1, 6-fluoro-3-(1-isopropyl-4-methylpiperidin-4-yl)-4H-benzo[4,5]imidazo[1,2-b]pyrazol-8-carboxamide], the IC50 in the data set on MDA-MB-231 cells (setting [3]) came to 4.86 µM; in the data set on MDA-MB-231 cells (setting [4]), 3.96 µM; in the data set on MDA-MB-231 cells (setting [5]), 5.75 µM; with MDA-MB-231 cells (setting [6]), 5.83 µM; in the data set with MDA-MB-231 cells (setting [7]), 6.21 µM; in the data set on MDA-MB-231 cells (setting [8]) it was 5.44 µM. Moreover, the IC50 in the data set on MDA-MB-436 cells (setting [10]) came to 0.007 µM; in the data set on MDA-MB-436 cells (setting [11]) it was 0.009 µM; in the data set with MDA-MB-436 cells (setting [12]), 0.005 µM; in the data set with MDA-MB-436 cells (setting [13]), 0.071 µM; in the data set with MDA-MB-436 cells (setting [14]), 0.089 µM; with MDA-MB-436 cells (setting [15]), 0.053 µM. Besides, the PF50 with MDA-MB-231 cells (setting [9]) was determined as 1.20; in the data set on MDA-MB-436 cells (setting [16]), 9.84. The “inhibitory effect on cell line” value in the data set on MDA-MB-436 cells (BRAC mutant MDA-MB-436 cell line) is “strong inhibitory effect”. Moreover, the synergistic effect result with MDA-MB-436 cells (combined with TMZ) is reported as “good synergistic effect”.
Consider `CC(C)N1CCC(C)(c2cnn3c2[nH]c2cc(F)cc(C(N)=O)c23)CC1.O=C(O)/C=C\C(=O)O` [Crystal type A, 6-fluoro-3-(1-isopropyl-4-methylpiperidin-4-yl)-4H-benzo[4,5]imidazo[1,2-b]pyrazol-8-formamide.maleate monohydrate], for which the “Appearance (3 days)” value is “Suspension” in data set [1] (Acetone, 25° C.); “Suspension” in data set [1] (Acetone:water = 1:2, 25° C.); “Suspension” in data set [1] (Acetonitrile:water = 1:1, 25° C.); “Suspension” in data set [1] (Ethanol, 25° C.); “Suspension” in data set [1] (Ethanol:water = 3:1, 25° C.); “Suspension” in data set [1] (Ethyl acetate, 25° C.). Further, the “Appearance (3 days)” value in data set [1] (Isopropanol, 25° C.) is “Suspension”; in data set [1] (Isopropanol:water = 1:1, 25° C.) it was “Suspension”; in data set [1] (Methanol, 25° C.), “Suspension”; in data set [1] (Methanol:water = 3:1, 25° C.), “Suspension”. Further, the “Results (crystalline state by XRPD)” value is on record as “Crystal type A” in data set [1] (Acetone, stirred at 25° C.); “Crystal type A” in data set [1] (Acetone:water = 1:2, stirred at 25° C.); “Crystal type A” in data set [1] (Acetonitrile:water = 1:1, stirred at 25° C.); “Crystal type A” in data set [1] (Ethanol, stirred at 25° C.); “Crystal type A” in data set [1] (Ethanol:water = 3:1, stirred at 25° C.); “Crystal type A” in data set [1] (Ethyl acetate, stirred at 25° C.). Besides, the “Results (crystalline state by XRPD)” value in data set [1] (Isopropanol, stirred at 25° C.) is “Crystal type A”; in data set [1] (Isopropanol:water = 1:1, stirred at 25° C.), “Crystal type A”; in data set [1] (Methanol, stirred at 25° C.), “Crystal type A”; in data set [1] (Methanol:water = 3:1, stirred at 25° C.), “Crystal type A”. For the same compound, the Appearance entry in data set [2] (60° C. (open), day 10) is on record as “White powder”; in data set [2] (92.5% RH (open), day 10) it was “White powder”; in data set [2] (setting [17]) it was “White powder”; in data set [2] (initial, day 0), “White powder”. Further, the “Content (%)” value in data set [2] (60° C. (open), day 10) is listed as 98.5%; in data set [2] (92.5% RH (open), day 10), 99.5%; in data set [2] (setting [17]) it was 99.4%; in data set [2] (initial, day 0) it was 98.9%. Moreover, the “Total impurities (%)” value stood at 0.11% in data set [2] (60° C. (open), day 10); 0.10% in data set [2] (92.5% RH (open), day 10); 0.11% in data set [2] (setting [17]); 0.10% in data set [2] (initial, day 0).
As for `Cn1nnc2c(C(N)=O)ncn2c1=O` [TMZ, temozolomide], the IC50 in the data set with MDA-MB-231 cells (setting [6]) was determined as 4.17 µM; in the data set with MDA-MB-231 cells (setting [7]), 4.61 µM; in the data set on MDA-MB-231 cells (setting [8]), 3.72 µM; in the data set with MDA-MB-231 cells (MDA-MB-231, used singly, average, read-out: IC50_Avg), 3.42 µM; with MDA-MB-231 cells (MDA-MB-231, used singly, run N=1, read-out: IC50_N = 1) it was 3.33 µM; with MDA-MB-231 cells (MDA-MB-231, used singly, run N=2, read-out: IC50_N = 2), 3.52 µM. Also, the IC50 in the data set with MDA-MB-436 cells (setting [13]) came to 111 µM; in the data set on MDA-MB-436 cells (setting [14]), 80.2 µM; in the data set with MDA-MB-436 cells (MDA-MB-436, used singly, average, read-out: IC50_Avg) it was 107 µM; in the data set with MDA-MB-436 cells (MDA-MB-436, used singly, run N=1, read-out: IC50_N = 1), 152 µM.
